Legend:
[1] = system: FoxM1_ΔVIIa / FoxM1_FL mRNA (FoxM1 gene splicing); experiment: Monitoring expression levels of FoxM1 splice variants using real-time quantitative PCR; format: cell-based; conditions: Fibroblast; human fibroblasts, 24 hours, RT-qPCR, Hill fit of concentration dependence curves
Procedure: Human fibroblasts were plated at 10,000 cells/well in 200 μl DMEM with GlutaMAX and 10% FBS in 96-well plates in a cell culture incubator (37° C., 5% CO2, 100% relative humidity). Cells were then treated with compounds at different concentrations (0.1-300 nM, each in 0.5% DMSO) in triplicate for 24 hours. RNA extraction was performed as per instructions mentioned in the Ambion® Cells-to-CT™ Kits from Applied Biosystems®. RNA samples were frozen at −20° C. until further analysis. Relative expression levels of full-length FoxM1 (FoxM1_FL) or FoxM1 lacking exon VIIa (FoxM1_ΔVIIa) with GAPDH for internal control, was measured using one-step multiplex reverse transcription-polymerase chain reaction (RT-PCR). TaqMan® FAM probes were used for relative quantitation of FoxM1_FL or FoxM1_ΔVIIa expression levels and TaqMan® VIC probes were used for relative quantitation of human GAPDH levels. The fidelity of the amplification methods was determined using the ΔΔCt relative quantification method for quantitative PCR.
To investigate an effect on splicing of FoxM1, human fibroblasts were treated for 24 hours with compounds of the present invention in dose response, and analysed by RT-qPCR for presence of mRNA including (FoxM1_FL) or excluding the exon VIIa (FoxM1_ΔVIIa). […] Correspondingly, the mRNAs for FoxM1_ΔVIIa declined. […] The resulting concentration dependence curves of the FoxM1_ΔVIIa splice variant were fitted to a Hill binding equation to yield IC50 values that are described in Table 1. […] Taken together, the data underline a splicing modifying activity in the FoxM1 gene.

[2] = system: SMN protein; conditions: taken from Activity Tables of WO 2014/028459, WO 2014/116845, WO 2015/017589; cited from earlier work

Row | Compound | IC50 [1] [nM] | EC50 [2] [nM]
1 | CN(c1ccc(-c2ccc(-c3cnn(C)c3)cc2O)nn1)C1CC(C)(C)NC(C)(C)C1 [Compound 3, 2-(6-(methyl-(2,2,6,6-tetramethylpiperidin-4-yl)amino)pyridazin-3-yl)-5-(1-methyl-1H-pyrazol-4-yl)phenol] | 9.8 | –
2 | CN(c1ccc(-c2cc3ccccc3cc2O)nn1)C1CC(C)(C)NC(C)(C)C1 [Compound 8, 3-(6-(methyl(2,2,6,6-tetramethylpiperidin-4-yl)amino)pyridazin-3-yl)naphthalen-2-ol] | 3.7 | –
3 | CC1(C)CC(Oc2ccc(-c3ccc(-n4cccn4)cc3O)nn2)CC(C)(C)N1 [Compound 5] | 278 | –
4 | CN(c1ccc(-c2ccc(C#N)cc2O)nn1)C1CC(C)(C)NC(C)(C)C1 [Compound 1, 3-hydroxy-4-(6-(methyl(2,2,6,6-tetramethylpiperidin-4-yl)amino)pyridazin-3-yl)benzonitrile] | 41 | –
5 | CN(c1ccc(-c2ccc(-c3ccc(=O)n(C)c3)cc2O)nn1)C1CC(C)(C)NC(C)(C)C1 [Compound 7, 5-(3-hydroxy-4-(6-(methyl-(2,2,6,6-tetramethylpiperidin-4-yl)amino)pyridazin-3-yl)phenyl)-1-methylpyridin-2(1H)-one] | 167 | –
6 | CC1(C)CC(Oc2ccc(-c3ccc(-c4cn[nH]c4)cc3O)nn2)CC(C)(C)N1 [Compound 4] | 17 | –
7 | CN(c1nnc(-c2ccc(-c3cn[nH]c3)cc2Cl)s1)C1CC(C)(C)NC(C)(C)C1 [Compound 12, 5-(2-Chloro-4-(1H-pyrazol-4-yl)phenyl)-N-methyl-N-(2,2,6,6-tetramethylpiperidin-4-yl)-1,3,4-thiadiazol-2-amine] | 265 | 34
8 | CN(c1nnc(-c2ccc(-c3ccn(C)c(=O)c3)cc2Cl)s1)C1CC(C)(C)NC(C)(C)C1 [Compound 13, 4-(3-chloro-4-(5-(methyl(2,2,6,6-tetramethylpiperidin-4-yl)amino)-1,3,4-thiadiazol-2-yl)phenyl)-1-methylpyridin-2(1H)-one] | 345 | 50
9 | CN(c1ccc(-c2ccc(-c3cn[nH]c3)cc2O)nn1)C1CC(C)(C)NC(C)(C)C1 [Compound 2, 5-(1H-pyrazol-4-yl)-2-(6-(methyl(2,2,6,6-tetramethylpiperidin-4-yl)amino)pyridazin-3-yl)phenol] | 0.9 | –
10 | COc1ccc2cc(-c3ccc(N(C)C4CC(C)(C)NC(C)(C)C4)nn3)c(O)cc2c1 [Compound 11, 7-methoxy-3-(6-(methyl(2,2,6,6-tetramethylpiperidin-4-yl)amino)pyridazin-3-yl)naphthalen-2-ol] | 0.8 | –
11 | CN(c1nnc(-c2cc(F)c(-c3ccn[nH]3)cc2F)s1)C1CC(C)(C)NC(C)(C)C1 [Compound 14, 5-(2,5-difluoro-4-(1H-pyrazol-5-yl)phenyl)-N-methyl-N-(2,2,6,6-tetramethylpiperidin-4-yl)-1,3,4-thiadiazol-2-amine] | 144 | 85
12 | CN(c1ccc(-c2cc3ccc(O)cc3cc2O)nn1)C1CC(C)(C)NC(C)(C)C1 [Compound 9, 3-(6-(methyl-(2,2,6,6-tetramethylpiperidin-4-yl)amino)pyridazin-3-yl)naphthalene-2,7-diol] | 0.7 | –

From patent publication US11066400B2, “Compounds for the treatment of cancer” (Hoffmann-La Roche Inc., priority 2015, dated 2021)
